Assay results published in patent publication US20260049092A1, “ANTIBACTERIAL COMPOUNDS” (Blacksmith Medicines, Inc., priority 2022, published 2026).
Values after ≈ are worked out from the molar mass of the structure shown. Where two headings read alike, the source gives them in different places.

How the values were obtained:
Experiment in all cases: Bacterial susceptibility testing (MIC, broth microdilution)
Type in all cases: cell-based
K. pneumoniae ATCC13883 = conditions: for MIC: Klebsiella pneumoniae
Description: (§1) Minimal inhibitory concentrations (MIC) were determined by the broth microdilution method in accordance with the Clinical and Laboratory Standards Institute (CLSI) guidelines. In brief, organism suspensions were adjusted to a final inoculum between 3×10^5 and 7×10^5 colony-forming units (CFU)/mL. Drug dilutions and inocula were made in sterile, cation adjusted Mueller-Hinton Broth (Beckton Dickinson). In wells, an inoculum volume of 100 μL was mixed to 2 μL of DMSO with 2-fold serial dilutions of drug. All inoculated microdilution trays were incubated in ambient air at 35° C. for 18-24 h. Following incubation, the lowest concentration of the drug that prevented visible growth (OD600 nm<0.05) was recorded as the MIC. Performance of the assay was monitored by the use of laboratory quality -control strains and compounds with defined MIC spectrum, in accordance with CLSI guidelines.

E. coli ATCC25922 = conditions: for MIC: Escherichia coli
Description: as §1

P. aeruginosa ATCC27853 = conditions: for MIC: Pseudomonas aeruginosa
Description: as §1

P. aeruginosa PAO1 = conditions: Pseudomonas aeruginosa
Description: as §1

[1] = ATCC13883, broth microdilution, cation adjusted Mueller-Hinton Broth, 35° C., 18-24 h, read-out: K. pneumoniae ATCC13883 MIC
[2] = ATCC25922, broth microdilution, cation adjusted Mueller-Hinton Broth, 35° C., 18-24 h, read-out: E. coli ATCC25922 MIC
[3] = ATCC27853, broth microdilution, cation adjusted Mueller-Hinton Broth, 35° C., 18-24 h, read-out: P. aeruginosa ATCC27853 MIC
[4] = PAO1, broth microdilution, cation adjusted Mueller-Hinton Broth, 35° C., 18-24 h, read-out: P. aeruginosa PAO1 MIC
[5] = broth microdilution, cation adjusted Mueller-Hinton Broth, 35° C., 18-24 h

MIC (K. pneumoniae ATCC13883; [1]) | MIC (E. coli ATCC25922; [2]) | MIC (P. aeruginosa ATCC27853; [3]) | MIC (P. aeruginosa PAO1; [4]) | K. pneumoniae ATCC13883 MIC (K. pneumoniae ATCC13883; [5]) | E. coli ATCC25922 MIC (E. coli ATCC25922; [5]) | P. aeruginosa ATCC27853 MIC (P. aeruginosa ATCC27853; [5]) | SMILES | MIC (K. pneumoniae ATCC13883; ATCC13883, read-out: K. pneumoniae ATCC13883 MIC) | MIC (E. coli ATCC25922; ATCC25922, read-out: E. coli ATCC25922 MIC) | MIC (P. aeruginosa ATCC27853; ATCC27853, read-out: P. aeruginosa ATCC27853 MIC) | MIC (P. aeruginosa PAO1; PAO1, read-out: P. aeruginosa PAO1 MIC)
4 µg/mL (≈ 8.84 µM) | 2 µg/mL (≈ 4.42 µM) | 8 µg/mL (≈ 17.7 µM) | 8 µg/mL (≈ 17.7 µM) | – | – | – | C[C@H](O)c1nccn1[C@@H](C#Cc1ccc(-c2ccc(O[C@@H]3COC[C@H]3O)cc2)cc1F)CO (racemic) [Compound 4, (rac-trans)-4-((3′-fluoro-4′-((S)-4-hydroxy-3-(2-((S)-1-hydroxyethyl)-1H-imidazol-1-yl)but-1-yn-1-yl)-[1,1′-biphenyl]-4-yl)oxy)tetrahydrofuran-3-ol] | – | – | – | –
4 µg/mL (≈ 8.84 µM) | 2 µg/mL (≈ 4.42 µM) | 4 µg/mL (≈ 8.84 µM) | 4 µg/mL (≈ 8.84 µM) | – | – | – | C[C@H](O)c1nccn1[C@@H](C#Cc1ccc(-c2ccc(O[C@@H]3COC[C@H]3O)cc2)c(F)c1)CO (racemic) [Compound 5, (rac-trans)-4-((2′-fluoro-4′-((S)-4-hydroxy-3-(2-((S)-1-hydroxyethyl)-1H-imidazol-1-yl)but-1-yn-1-yl)-[1,1′-biphenyl]-4-yl)oxy)tetrahydrofuran-3-ol] | – | – | – | –
8 µg/mL (≈ 17.1 µM) | 4 µg/mL (≈ 8.57 µM) | 8 µg/mL (≈ 17.1 µM) | 8 µg/mL (≈ 17.1 µM) | – | – | – | C[C@H](O)c1nccn1[C@@H](C#Cc1ccc(-c2ccc(CO[C@@H]3COC[C@H]3O)c(F)c2)cc1)CO (racemic) [Compound 44, (rac-trans)-4-((3-fluoro-4′-((S)-4-hydroxy-3-(2-((S)-1-hydroxyethyl)-1H-imidazol-1-yl)but-1-yn-1-yl)-[1,1′-biphenyl]-4-yl)methoxy)tetrahydrofuran-3-ol] | – | – | – | –
4 µg/mL (≈ 8.94 µM) | 2 µg/mL (≈ 4.47 µM) | 4 µg/mL (≈ 8.94 µM) | 2 µg/mL (≈ 4.47 µM) | – | – | – | C[C@H](O)c1nccn1[C@@H](C#Cc1ccc(-c2ccc(CN[C@@H]3COC[C@H]3O)cc2)cc1)CO (racemic) [Compound 65] | – | – | – | –
1 µg/mL (≈ 2.34 µM) | 0.5 µg/mL (≈ 1.17 µM) | 4 µg/mL (≈ 9.38 µM) | 1 µg/mL (≈ 2.34 µM) | – | – | – | C[C@H](O)c1nccn1[C@@H](C#Cc1ccc(-c2ccc([C@H]3C[C@](N)(C#N)C3)cc2)cc1)CO (racemic) [Compound 101, (rac-cis)-1-amino-3-(4′-((S)-4-hydroxy-3-(2-((S)-1-hydroxyethyl)-1H-imidazol-1-yl)but-1-yn-1-yl)-[1,1′-biphenyl]-4-yl)cyclobutane-1-carbonitrile] | – | – | – | –
8 µg/mL (≈ 15.9 µM) | 4 µg/mL (≈ 7.96 µM) | > 32 µg/mL | 8 µg/mL (≈ 15.9 µM) | – | – | – | C[C@H](O)c1nccn1[C@@H](C#Cc1ccc(-c2ccc(O[C@H]3COC[C@]3(O)C(F)(F)F)cc2)cc1)CO (racemic) [Compound 119, (rac-cis)-4-((4′-((S)-4-hydroxy-3-(2-((S)-1-hydroxyethyl)-1H-imidazol-1-yl)but-1-yn-1-yl)-[1,1′-biphenyl]-4-yl)oxy)-3-(trifluoromethyl)tetrahydrofuran-3-ol] | – | – | – | –
2 µg/mL (≈ 4.04 µM) | 1 µg/mL (≈ 2.02 µM) | 4 µg/mL (≈ 8.07 µM) | 2 µg/mL (≈ 4.04 µM) | – | – | – | C[C@H](O)c1nccn1[C@@H](C#Cc1ccc(-c2ccc(O[C@H]3C[C@H](NS(C)(=O)=O)C3)cc2)cc1)CO (racemic) [Compound 120, N-((rac-trans)-3-((4′-((S)-4-hydroxy-3-(2-((S)-1-hydroxyethyl)-1H-imidazol-1-yl)but-1-yn-1-yl)-[1,1′-biphenyl]-4-yl)oxy)cyclobutyl)methane-sulfonamide] | – | – | – | –
– | – | – | – | 2 µg/mL | 1 µg/mL | 4 µg/mL | C[C@H](O)c1nccn1[C@@H](C#Cc1ccc(-c2ccc(CO[C@H]3COC[C@@H]3O)c(F)c2)cc1)CO (single isomer, unassigned) [Compound 46] | – | – | – | –

More lines, now with the values behind:

SMILES | MIC (K. pneumoniae ATCC13883; [1]) | MIC (E. coli ATCC25922; [2]) | MIC (P. aeruginosa ATCC27853; [3]) | MIC (P. aeruginosa PAO1; [4]) | K. pneumoniae ATCC13883 MIC (K. pneumoniae ATCC13883; [5]) | E. coli ATCC25922 MIC (E. coli ATCC25922; [5]) | P. aeruginosa ATCC27853 MIC (P. aeruginosa ATCC27853; [5]) | MIC (K. pneumoniae ATCC13883; ATCC13883, read-out: K. pneumoniae ATCC13883 MIC) | MIC (E. coli ATCC25922; ATCC25922, read-out: E. coli ATCC25922 MIC) | MIC (P. aeruginosa ATCC27853; ATCC27853, read-out: P. aeruginosa ATCC27853 MIC) | MIC (P. aeruginosa PAO1; PAO1, read-out: P. aeruginosa PAO1 MIC)
C[C@H](O)c1nccn1[C@@H](C#Cc1ccc(-c2ccc(O[C@@H]3COC[C@H]3O)cc2F)cc1)CO (racemic) [Compound 1, (rac-trans)-4-((2-fluoro-4′-((S)-4-hydroxy-3-(2-((S)-1-hydroxyethyl)-1H-imidazol-1-yl)but-1-yn-1-yl)-[1,1′-biphenyl]-4-yl)oxy)tetrahydrofuran-3-ol] | 2 µg/mL (≈ 4.42 µM) | 0.5 µg/mL (≈ 1.11 µM) | 4 µg/mL (≈ 8.84 µM) | 2 µg/mL (≈ 4.42 µM) | – | – | – | – | – | – | –
C[C@H](O)c1nccn1[C@@H](C#Cc1ccc(-c2ccc(OC3COC[C@H]3O)c(F)c2)cc1)CO (mixture of isomers) [Compound 6, (rac-trans)-4-((3-fluoro-4′-((S)-4-hydroxy-3-(2-((S)-1-hydroxyethyl)-1H-imidazol-1-yl)but-1-yn-1-yl)-[1,1′-biphenyl]-4-yl)oxy)tetrahydrofuran-3-ol] | 4 µg/mL (≈ 8.84 µM) | 2 µg/mL (≈ 4.42 µM) | 4 µg/mL (≈ 8.84 µM) | 2 µg/mL (≈ 4.42 µM) | – | – | – | – | – | – | –
C[C@H](O)c1nccn1[C@@H](C#Cc1ccc(-c2ccc(O[C@@H]3CCOC[C@H]3O)c(F)c2)cc1)CO (racemic) [Compound 51, (rac-trans)-4-((3-fluoro-4′-((S)-4-hydroxy-3-(2-((S)-1-hydroxyethyl)-1H-imidazol-1-yl)but-1-yn-1-yl)-[1,1′-biphenyl]-4-yl)oxy)tetrahydro-2H-pyran-3-ol] | 4 µg/mL (≈ 8.57 µM) | 2 µg/mL (≈ 4.29 µM) | 8 µg/mL (≈ 17.1 µM) | 2 µg/mL (≈ 4.29 µM) | – | – | – | – | – | – | –
C[C@H](O)c1nccn1[C@@H](C#Cc1ccc(-c2ccc(O[C@@H]3CCOC[C@H]3O)cc2F)cc1)CO (racemic) [Compound 54, (rac-trans)-4-((2-fluoro-4′-((S)-4-hydroxy-3-(2-((S)-1-hydroxyethyl)-1H-imidazol-1-yl)but-1-yn-1-yl)-[1,1′-biphenyl]-4-yl)oxy)tetrahydro-2H-pyran-3-ol] | 2 µg/mL (≈ 4.29 µM) | 1 µg/mL (≈ 2.14 µM) | 8 µg/mL (≈ 17.1 µM) | 4 µg/mL (≈ 8.57 µM) | – | – | – | – | – | – | –
C[C@H](O)c1nccn1[C@@H](C#Cc1ccc(-c2ccc(NC[C@@H]3COC[C@H]3O)cc2)cc1)CO (racemic) [Compound 69, (rac-trans)-4-(((4′-((S)-4-hydroxy-3-(2-((S)-1-hydroxyethyl)-1H-imidazol-1-yl)but-1-yn-1-yl)-[1,1′-biphenyl]-4-yl)amino)methyl)tetrahydrofuran-3-ol] | 2 µg/mL (≈ 4.47 µM) | 1 µg/mL (≈ 2.23 µM) | 2 µg/mL (≈ 4.47 µM) | 1 µg/mL (≈ 2.23 µM) | – | – | – | – | – | – | –
CC(N1CC(Oc2ccc(-c3ccc(C#C[C@@H](CO)n4ccnc4[C@H](C)O)cc3)cc2)C1)C(F)(F)F (mixture of isomers) [Compound 97, (2S)-2-(2-((S)-1-hydroxyethyl)-1H-imidazol-1-yl)-4-(4′-((1-(1,1,1-trifluoropropan-2-yl)azetidin-3-yl)oxy)-[1,1′-biphenyl]-4-yl)but-3-yn-1-ol] | – | – | – | – | – | – | – | 8 µg/mL (≈ 16 µM) | 4 µg/mL (≈ 8.01 µM) | 32 µg/mL (≈ 64.1 µM) | 16 µg/mL (≈ 32 µM)
CC1C(Oc2ccc(-c3ccc(C#C[C@@H](CO)n4ccnc4[C@H](C)O)cc3)cc2)CN1CC#N (mixture of isomers) [Compound 99] | 2 µg/mL (≈ 4.38 µM) | 1 µg/mL (≈ 2.19 µM) | 8 µg/mL (≈ 17.5 µM) | 4 µg/mL (≈ 8.76 µM) | – | – | – | – | – | – | –
CNC(=O)C(C)Oc1ccc(-c2ccc(C#C[C@@H](CO)n3ccnc3[C@H](C)O)cc2)cc1 (mixture of isomers) [Compound 102, 2-((4′-((S)-4-hydroxy-3-(2-((S)-1-hydroxyethyl)-1H-imidazol-1-yl)but-1-yn-1-yl)-[1,1′-biphenyl]-4-yl)oxy)-N-methylpropanamide] | 4 µg/mL (≈ 9.23 µM) | 2 µg/mL (≈ 4.61 µM) | 8 µg/mL (≈ 18.5 µM) | 4 µg/mL (≈ 9.23 µM) | – | – | – | – | – | – | –
C[C@H](O)c1nccn1[C@@H](C#Cc1ccc(-c2ccc(OC3CCN(CC#N)C3)cc2)cc1)CO (mixture of isomers) [Compound 104, 2-(3-((4′-((S)-4-hydroxy-3-(2-((S)-1-hydroxyethyl)-1H-imidazol-1-yl)but-1-yn-1-yl)-[1,1′-biphenyl]-4-yl)oxy)pyrrolidin-1-yl)acetonitrile] | 4 µg/mL (≈ 8.76 µM) | 2 µg/mL (≈ 4.38 µM) | 2 µg/mL (≈ 4.38 µM) | 2 µg/mL (≈ 4.38 µM) | – | – | – | – | – | – | –
C[C@H](O)c1nccn1[C@@H](C#Cc1ccc(-c2ccc(C3CCO3)cc2)cc1)CO (mixture of isomers) [Compound 106, (2S)-2-(2-((S)-1-hydroxyethyl)-1H-imidazol-1-yl)-4-(4′-(oxetan-2-yl)-[1,1′-biphenyl]-4-yl)but-3-yn-1-ol] | 0.5 µg/mL (≈ 1.29 µM) | 0.25 µg/mL (≈ 0.644 µM) | 4 µg/mL (≈ 10.3 µM) | 2 µg/mL (≈ 5.15 µM) | – | – | – | – | – | – | –
CO[C@H]1C[C@H](c2ccc(-c3ccc(C#C[C@@H](CO)n4ccnc4[C@H](C)O)cc3)cc2)C1 (racemic) [Compound 117, (S)-2-(2-((S)-1-hydroxyethyl)-1H-imidazol-1-yl)-4-(4′-((rac-trans)-3-methoxycyclobutyl)-[1,1′-biphenyl]-4-yl)but-3-yn-1-ol] | 0.25 µg/mL (≈ 0.6 µM) | 0.12 µg/mL (≈ 0.288 µM) | 4 µg/mL (≈ 9.6 µM) | 2 µg/mL (≈ 4.8 µM) | – | – | – | – | – | – | –
CO[C@H]1C[C@@H](c2ccc(-c3ccc(C#C[C@@H](CO)n4ccnc4[C@H](C)O)cc3)cc2)C1 (racemic) [Compound 118, (S)-2-(2-((S)-1-hydroxyethyl)-1H-imidazol-1-yl)-4-(4′-((rac-cis)-3-methoxycyclobutyl)-[1,1′-biphenyl]-4-yl)but-3-yn-1-ol] | 0.38 µg/mL (≈ 0.912 µM) | 0.12 µg/mL (≈ 0.288 µM) | 4 µg/mL (≈ 9.6 µM) | 2 µg/mL (≈ 4.8 µM) | – | – | – | – | – | – | –
